ChEMBL document CHEMBL5154913, “Phenyl Bis-Sulfonamide Keap1-Nrf2 Protein-Protein Interaction Inhibitors with an Alternative Binding Mode” (J Med Chem, 2022)
Values after ≈ are worked out from the molar mass of the structure shown. Values belong to the compound of their own block, whether it stands above or below them.

Tests used:
[1] = Aqueous solubility of the compound at pH 7.4; format: physicochemical; details: aqueous medium
[2] = Permeability of the compound across artificial membrane by IAM binding assay; format: ADME
[3] = system: ARPE-19; experiment: Cytotoxicity against human ARPE-19 cells assessed as reduction in cell viability at 1 uM incubated for 96 hrs by MTT assay relative to control; format: toxicity, cell-based; details: arpe-19, 96 h

solubility [1]: 348 µg/mL (≈ 519 µM)
SMILES: COc1ccc(S(=O)(=O)N(CC(=O)O)c2ccc(N(CC(=O)O)S(=O)(=O)c3ccc(OC)cc3)c(OCc3ccccc3)c2)cc1

log K [2]: 1.83
SMILES: COc1ccc(S(=O)(=O)N(CC(=O)O)c2ccc(N(CC(=O)O)S(=O)(=O)c3ccc(OC)cc3)c(OCc3cccc(OC)c3)c2)cc1

SMILES: COC(=O)[C@]12CCC(C)(C)C[C@H]1[C@H]1C(=O)C=C3[C@@]4(C)C=C(C#N)C(=O)C(C)(C)[C@@H]4CC[C@@]3(C)[C@]1(C)CC2 [BARDOXOLONE METHYL]
Activity [3]: Toxic
